For orientation: inhibition means the share of the control response that was lost under treatment. A word on the IC50: it is the concentration at which inhibition is half-maximal.

Data on 40 compounds can be found in patent US20130338178A1, “SIRTUIN MODULATORS AS INHIBITORS OF CYTOMEGALOVIRUS” (THE TRUSTEES OF PRINCETON UNIVERSITY, priority 2011, published 2013).

The target of one assay is T1, sirtuin (Homo sapiens, UniProt Q8IXJ6).
T1 sequence (Q8IXJ6 2-389 limits assumed): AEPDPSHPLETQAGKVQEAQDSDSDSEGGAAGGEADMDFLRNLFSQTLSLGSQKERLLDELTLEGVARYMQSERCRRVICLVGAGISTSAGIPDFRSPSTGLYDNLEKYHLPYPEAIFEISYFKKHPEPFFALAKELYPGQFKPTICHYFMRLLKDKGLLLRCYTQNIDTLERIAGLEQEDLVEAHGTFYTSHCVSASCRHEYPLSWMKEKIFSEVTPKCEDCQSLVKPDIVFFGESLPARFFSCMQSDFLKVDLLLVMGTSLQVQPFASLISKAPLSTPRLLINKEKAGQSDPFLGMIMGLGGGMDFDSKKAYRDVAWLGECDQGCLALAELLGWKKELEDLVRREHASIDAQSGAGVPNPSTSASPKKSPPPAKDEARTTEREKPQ
The following applies: cited from earlier work.

Assay [1] deals with T2, SIRT2 (Homo sapiens, UniProt Q8IXJ6).
T2 sequence (Q8IXJ6 1-389): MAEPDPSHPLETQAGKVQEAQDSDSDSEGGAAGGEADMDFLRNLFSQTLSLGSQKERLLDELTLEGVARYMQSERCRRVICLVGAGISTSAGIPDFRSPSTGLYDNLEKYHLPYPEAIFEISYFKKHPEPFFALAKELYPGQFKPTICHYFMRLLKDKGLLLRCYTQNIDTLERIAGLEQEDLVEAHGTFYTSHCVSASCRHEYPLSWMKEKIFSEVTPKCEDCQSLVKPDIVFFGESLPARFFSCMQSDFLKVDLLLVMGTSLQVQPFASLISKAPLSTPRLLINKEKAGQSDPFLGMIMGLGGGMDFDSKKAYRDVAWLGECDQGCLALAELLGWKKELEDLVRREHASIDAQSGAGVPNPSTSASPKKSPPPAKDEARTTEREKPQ
Conditions: cited from earlier work.

Another assay has as its target Sirt6 (Homo sapiens, UniProt Q8N6T7). The following applies: cited from earlier work.
The next assay deals with T3, Sirt5 (Homo sapiens, UniProt Q9NXA8).
T3 sequence (Q9NXA8 37-310): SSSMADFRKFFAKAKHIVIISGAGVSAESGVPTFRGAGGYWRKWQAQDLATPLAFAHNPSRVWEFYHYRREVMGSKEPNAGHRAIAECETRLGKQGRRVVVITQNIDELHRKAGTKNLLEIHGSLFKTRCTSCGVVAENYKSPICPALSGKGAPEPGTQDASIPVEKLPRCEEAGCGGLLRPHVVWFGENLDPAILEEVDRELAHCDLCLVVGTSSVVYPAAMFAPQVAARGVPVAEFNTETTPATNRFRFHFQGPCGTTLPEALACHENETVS
The following applies: cited from earlier work.

Assay [2] has as its target T2, SIRT2. Conditions: cited from earlier work; for Inhibition (at 60 μM ± SE (%)) SIRT2: n = 2.
Assay [3] deals with T4, SIRT1 (Homo sapiens, UniProt Q96EB6).
T4 sequence (Q96EB6 1-747): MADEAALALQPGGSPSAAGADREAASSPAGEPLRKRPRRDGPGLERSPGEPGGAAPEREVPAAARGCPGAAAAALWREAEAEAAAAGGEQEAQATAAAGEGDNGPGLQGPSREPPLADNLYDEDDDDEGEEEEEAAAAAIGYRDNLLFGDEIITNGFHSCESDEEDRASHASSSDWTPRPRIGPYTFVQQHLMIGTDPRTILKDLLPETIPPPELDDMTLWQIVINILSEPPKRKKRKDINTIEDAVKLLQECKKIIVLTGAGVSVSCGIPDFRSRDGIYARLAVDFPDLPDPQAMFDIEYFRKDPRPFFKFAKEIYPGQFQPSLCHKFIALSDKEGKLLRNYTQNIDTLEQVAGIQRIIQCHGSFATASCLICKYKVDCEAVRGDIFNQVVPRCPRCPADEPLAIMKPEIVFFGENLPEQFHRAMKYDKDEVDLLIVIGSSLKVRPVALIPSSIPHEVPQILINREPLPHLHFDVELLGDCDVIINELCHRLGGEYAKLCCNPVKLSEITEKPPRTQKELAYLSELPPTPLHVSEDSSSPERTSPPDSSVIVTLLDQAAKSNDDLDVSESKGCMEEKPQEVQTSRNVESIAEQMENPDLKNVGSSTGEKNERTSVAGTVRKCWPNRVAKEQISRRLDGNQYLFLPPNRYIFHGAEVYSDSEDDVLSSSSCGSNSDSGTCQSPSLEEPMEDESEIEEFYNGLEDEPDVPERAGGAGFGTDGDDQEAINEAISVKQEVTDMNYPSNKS
Conditions: n = 2; cited from earlier work.

A further assay concerns HCMV pUL99. Description: Late viral pUL99 expression and cytopathic effect in HCMV infected MRC5 cells. The class given is cell-based, human cytomegalovirus. The following applies: 10 μM; data not shown.
Assay [4] addresses T4, SIRT1. Conditions: cited from earlier work.
In another assay the target is Hst2 (Saccharomyces cerevisiae, UniProt P53686). Conditions: cited from earlier work.
Hst2, sequence (P53686 whole entry): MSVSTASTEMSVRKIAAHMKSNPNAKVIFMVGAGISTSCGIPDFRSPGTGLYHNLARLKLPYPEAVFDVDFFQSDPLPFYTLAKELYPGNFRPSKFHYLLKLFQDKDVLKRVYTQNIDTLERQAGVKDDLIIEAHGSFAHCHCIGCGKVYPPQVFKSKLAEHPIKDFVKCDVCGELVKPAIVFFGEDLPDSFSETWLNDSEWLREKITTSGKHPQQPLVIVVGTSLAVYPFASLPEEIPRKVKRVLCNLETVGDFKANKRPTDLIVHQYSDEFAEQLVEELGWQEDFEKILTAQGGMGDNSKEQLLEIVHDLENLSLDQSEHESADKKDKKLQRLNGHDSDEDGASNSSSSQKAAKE
Another assay relates to HCMV. The experiment in a line: Yield of infectious HCMV from drug-treated infected MRC5 fibroblasts. It is filed as cell-based, human cytomegalovirus. Conditions: FIG. 5.

Structures are written as SMILES.

Sirt6, sequence (Q8N6T7 whole entry): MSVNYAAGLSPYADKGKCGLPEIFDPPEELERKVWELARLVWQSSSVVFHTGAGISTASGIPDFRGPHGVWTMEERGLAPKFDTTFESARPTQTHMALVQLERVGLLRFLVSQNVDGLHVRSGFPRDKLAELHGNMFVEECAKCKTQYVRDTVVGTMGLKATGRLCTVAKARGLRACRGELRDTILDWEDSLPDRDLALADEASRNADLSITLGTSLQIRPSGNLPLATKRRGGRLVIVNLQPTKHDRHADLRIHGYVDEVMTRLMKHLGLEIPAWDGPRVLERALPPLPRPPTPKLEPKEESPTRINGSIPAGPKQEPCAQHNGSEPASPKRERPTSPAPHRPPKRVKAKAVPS

Turning to `C(=Nc1ccc(N=Cc2ccccc2)cc1)c1ccccc1` [3a], on sirtuin, the “inhibition at 200 μM ± SD, %” value was 35 ± 1.4%.
For `Oc1ccccc1C=Nc1ccc(N=Cc2ccccc2O)cc1` [3b], the “inhibition at 200 μM ± SD, %” value on sirtuin is 56 ± 8.2%.
As for `Oc1cccc(C=Nc2ccc(N=Cc3cccc(O)c3)cc2)c1` [3c], the “inhibition at 200 μM ± SD, %” value on sirtuin was 12 ± 0.9%.
In the case of `Oc1ccc(C=Nc2ccc(N=Cc3ccc(O)cc3)cc2)cc1` [3d], the “inhibition at 200 μM ± SD, %” value on sirtuin is recorded as 22 ± 1.6%.
With `COc1ccccc1C=Nc1ccc(N=Cc2ccccc2OC)cc1` [3f], at sirtuin, the “inhibition at 200 μM ± SD, %” value is reported as 13 ± 0.5%.
Turning to `COc1cccc(C=Nc2ccc(N=Cc3cccc(OC)c3)cc2)c1` [3g], at sirtuin, the “inhibition at 200 μM ± SD, %” value is recorded as 20 ± 1.2%.
Take `c1ccc(CNc2ccc(NCc3ccccc3)cc2)cc1` [4a]: the “inhibition at 200 μM ± SD, %” value at sirtuin was 21 ± 1.7%.
As for `Oc1ccccc1CNc1ccc(NCc2ccccc2O)cc1` [4b], the “inhibition at 200 μM ± SD, %” value on sirtuin is 27 ± 2.4%.
As for `Oc1cccc(CNc2ccc(NCc3cccc(O)c3)cc2)c1` [4c], at sirtuin, the “inhibition at 200 μM ± SD, %” value is listed as 8 ± 0.4%.
Turning to `Oc1ccc(CNc2ccc(NCc3ccc(O)cc3)cc2)cc1` [4d], the “inhibition at 200 μM ± SD, %” value at sirtuin was 14 ± 0.5%.
Regarding `C(=C1c2ccccc2-c2ccccc21)c1ccc(N=C2c3ccccc3-c3ccccc32)cc1` [CSC2], the Sirt2 effect entry on SIRT2 [1] is reported as “inhibition”.
With `Cc1cc(N2CCOCC2)nc2ccc(Cc3ccc4nc(N5CCOCC5)cc(C)c4c3)cc12` [CSC4], the Sirt2 effect result on SIRT2 [1] is “inhibition”.
As for `O=C1c2ccccc2C(=O)c2c(NCc3cc4c5c(ccc6c7ccc8c9c(cc(Nc%10cccc%11c%10C(=O)c%10ccccc%10C%11=O)c(c3c56)c97)-c3ccccc3C8=O)C(=O)c3ccccc3-4)cccc21` [CSC6], the Sirt6 effect entry on Sirt6 is “inhibition”. Besides, the Sirt2 effect entry at SIRT2 [1] is reported as “inhibition”.
Consider `C=C(C(C)c1ccc2c(c1)Cc1ccccc1-2)C(C)c1ccc2c(c1)Cc1ccccc1-2` (centres unmarked) [CSC7], for which the Sirt2 effect entry on SIRT2 [1] is listed as “inhibition”.
On to `Cc1ccc2c(c1)CCC1C2CCC2(C)C(OC(=O)CCc3ccccc3)CCC12` (centres unmarked) [CSC8], for which the Sirt2 effect result on SIRT2 [1] is listed as “inhibition”.
For `C/C(=C1/C=C(c2ccc3ccccc3c2)OC1=O)c1ccc(C(C)C)cc1` [CSC9], at SIRT2 [1], the Sirt2 effect entry was “inhibition”. Moreover, the Sirt5 effect entry on Sirt5 was “activation^c”.
For the compound `CC12Cc3cnc(-c4ccccc4)nc3CC1CCC1C2CCC2(C)C1CCC2(C)O` (centres unmarked) [CSC13], the Sirt2 effect entry at SIRT2 [1] is “inhibition”.
For `O=Cc1ccc2c(c1)C(=O)c1ccc3c4ccc5c6c(ccc(c7ccc-2c1c37)c64)-c1ccc(C(=O)O)cc1C5=O` [CSC14], the Sirt2 effect entry on SIRT2 [1] is given as “inhibition”. The Sirt5 effect entry on Sirt5 was “inhibition”.
On to `[H]/N=C(\c1ccc2ccccc2c1)c1ccccc1Cc1ccccc1` [CSC22], for which the Sirt2 effect entry at SIRT2 [1] is on record as “inhibition”.
For the compound `[H]/N=C(\c1cc(C)cc(C)c1)c1ccccc1Cc1cccc2ccccc12` [CSC23], the Sirt2 effect result at SIRT2 [1] is “inhibition”.
`[H]/N=C(\c1ccccc1Cc1cccc2ccccc12)c1ccc(C)c2ccccc12` [CSC24]: the Sirt2 effect entry at SIRT2 [1] is reported as “inhibition”.
Turning to `O=C1OC2(c3ccc(O)cc3Oc3cc(O)ccc32)c2c1c(-c1ccccc1)c(-c1ccccc1)c(-c1ccccc1)c2-c1ccccc1` [CSC28], on Sirt6, the Sirt6 effect result is “activation”. The Sirt2 effect result on SIRT2 [1] is recorded as “inhibition”.
With `COc1ccc2c(c1)Cc1cc(/N=[N+](\[O-])c3ccc4c(c3)Cc3cc(OC)ccc3-4)ccc1-2` [CSC32], the Sirt2 effect result at SIRT2 [1] was “inhibition”.
As to `O=S1(=O)C(c2ccccc2)C(N2CCCCC2)C1C1CC2c3ccccc3C1c1ccccc12` (centres unmarked) [CSC33], the Sirt6 effect result at Sirt6 is listed as “activation”. The Sirt5 effect result at Sirt5 is on record as “activation”.
For the compound `O=C1C2C3c4ccccc4C(c4ccccc43)C2C(=O)N1c1ccc(OCc2ccccc2)cc1` (centres unmarked) [CSC34], at Sirt6, the Sirt6 effect entry is listed as “activation”. Moreover, the Sirt2 effect result on SIRT2 [1] is reported as “inhibition”.
In the case of `O=c1[nH]c(=S)[nH]c(-c2ccc(Br)cc2)c1Cc1c(O)ccc2ccccc12` [Compd 6b], the 50% inhibitory concentration (IC50) on SIRT2 [2] (determined for compounds with over 60% inhibition at 60 μM) is greater than 90 µM.
With `O=c1[nH]c(=S)[nH]c(-c2ccc(Cl)cc2)c1Cc1c(O)ccc2ccccc12` [Compd 6iv], the “Inhibition (at 60 μM ± SE (%)) SIRT2” value at SIRT2 [2] is reported as 20.1 ± 1%. The “Inhibition (at 60 μM ± SE (%)) SIRT1” value on SIRT1 [3] is 13.7 ± 1%.
Take `O=c1[nH]c(=S)[nH]c(-c2cccc(Cl)c2)c1Cc1c(O)ccc2ccccc12` [Compd 6ix]: the “Inhibition (at 60 μM ± SE (%)) SIRT2” value at SIRT2 [2] was 7.6 ± 6%. At SIRT1 [3], the “Inhibition (at 60 μM ± SE (%)) SIRT1” value is 11.3 ± 1%.
Turning to `O=c1[nH]c(=S)[nH]c(-c2ccc(I)cc2)c1Cc1c(O)ccc2ccccc12` [Compd 6v], on SIRT2 [2], the “Inhibition (at 60 μM ± SE (%)) SIRT2” value is given as 7.7 ± 1%. The “Inhibition (at 60 μM ± SE (%)) SIRT1” value on SIRT1 [3] is on record as 7.7 ± 1%.
Regarding `O=c1[nH]c(=S)[nH]c(-c2ccc(C(F)(F)F)cc2)c1Cc1c(O)ccc2ccccc12` [Compd 6vi], on SIRT2 [2], the “Inhibition (at 60 μM ± SE (%)) SIRT2” value is on record as 6.7 ± 1%. Moreover, the “Inhibition (at 60 μM ± SE (%)) SIRT1” value on SIRT1 [3] is 15.1 ± 1%.
Turning to `O=c1[nH]c(=S)[nH]c(-c2ccccc2Br)c1Cc1c(O)ccc2ccccc12` [Compd 6vii], the “Inhibition (at 60 μM ± SE (%)) SIRT1” value at SIRT1 [3] is on record as 19.7 ± 1%.
Regarding `O=c1[nH]c(=S)[nH]c(-c2cccc(Br)c2)c1Cc1c(O)ccc2ccccc12` [Compd 6viii], the “Inhibition (at 60 μM ± SE (%)) SIRT2” value at SIRT2 [2] was 6.6 ± 3%. Further, the “Inhibition (at 60 μM ± SE (%)) SIRT1” value at SIRT1 [3] was 4.8 ± 1%.
As for `NC(=O)C1CCCc2c1[nH]c1ccc(Cl)cc21` (centres unmarked) [EX-527], in the assay on HCMV pUL99, the “accumulation of late viral pUL99 protein” value is recorded as “increased”.
As to `c1cnc2ocnc2c1` [Oxazolopyridine], the “EC1.5: The concentration to activate 1.5-fold” value on SIRT1 [4] was 0.09 µM.
Take `c1cc2c(ccc3ncc[nH]c32)n1` [Pyrroloquinoxaline]: the “activation at this concentration” value on SIRT1 [4] (10 μM) was “*233% activation at this concentration”. Moreover, the “EC1.5: The concentration to activate 1.5-fold” value on SIRT1 [4] is 10 µM.
Consider `COc1cc(C(=O)Nc2ccccc2-c2cn3c(CN4CCNCC4)csc3n2)cc(OC)c1OC` [SRT1460], for which the “EC1.5: The concentration to activate 1.5-fold” value at SIRT1 [4] is 2.9 µM.
`O=C(Nc1ccccc1-c1cn2c(CN3CCNCC3)csc2n1)c1cnc2ccccc2n1` [SRT1720]: the “EC1.5: The concentration to activate 1.5-fold” value on SIRT1 [4] was 0.16 µM.
For `O=C1CCc2c(ccc3ccccc23)O1` [Splitomycin], at Hst2, the half-inhibitory concentration (IC50) was greater than 600 µM.
Turning to `Cc1ccc(C(=O)Nc2ccc(S(=O)(=O)O)c3cc(S(=O)(=O)O)cc(S(=O)(=O)O)c23)cc1NC(=O)c1cccc(NC(=O)Nc2cccc(C(=O)Nc3cc(C(=O)Nc4ccc(S(=O)(=O)O)c5cc(S(=O)(=O)O)cc(S(=O)(=O)O)c45)ccc3C)c2)c1` [Suramin, suramin], the IC50 on Hst2 is 240 ± 70 µM.
In the case of `CN(C)CCCCC(=O)Nc1ccc(NC(=S)NC(=O)c2ccc(C(C)(C)C)cc2)cc1` [Tenovin 6], at Hst2, the half-maximal inhibitory concentration (IC50) is greater than 100 µM. Moreover, the “production of infectious HCMV” value in the assay on HCMV is on record as “blocked”.
